Experiments:
[1] = Plasma levels of isoxicam and bioavailability parameters after a single oral dose to beagle dogs; type: in vivo; settings: beagle, dog, in vivo, po; for Tmax: Tmax (hours)
Protocol: The range for the individual animals was 51.4 to 63.0 µg/ml with three animals having a peak time of two hours and the final animal at eight hours. These plasma levels were considerably higher when compared to micronized isoxicam. […] Peak plasma concentrations for individual animals ranged from […] between three and six hours postdose.
Areas under the plasma concentrations versus time curve (AUC^0-∞) were calculated using the trapezoidal rule and extrapolated to infinity with the appropriate elimination rate constants.

[2] = water and alcohol; cited from earlier work
[3] = cited from earlier work

## Cc1cc(NC(=O)C2=C(O)c3ccccc3S(=O)(=O)N2C)no1 [micronized isoxicam, 4 - hydroxy - 2 - methyl - N - (5 - methyl - 3 - isoxazolyl) - 2H - 1,2 - benzothiazine - 3 - carboxamide - 1,1 - dioxide, reference compound]
[1]; 100 mg, AUC^0-∞
  AUC: 808 µg·h/mL
[1]; 100 mg, Cmax (µg/ml)
  Cmax: 15400 ng/mL
[1]; 100 mg, Half-life (hours)
  half-life: 35.5 h
[1]; 100 mg, Mean Cmax
  Cmax: 15400 ± 4200 ng/mL
[1]; 100 mg, Mean half-lives (elimination, linear regression of semilogarithmic data)
  half-life: 35.5 ± 7.1 h
[1]; 100 mg
  Tmax: 4.2 h
[1]; 100 mg, mean AUC^0-∞
  AUC: 808 ± 230 µg·h/mL
[1]; Half-life (hours)
  half-life: 32.6 h
[1]
  Tmax: 6 h
[2]
  solubility: practically insoluble in water and alcohol
[3]
  pKa: about 3.65

Source: patent EP0140492B1 (WARNER-LAMBERT COMPANY, priority 1983, dated 1985)
